Results as given in patent US20040229930A1, “Formulations comprising a basic indolinone compound” (Pharmacia Italia S.p.A., priority 2002, published 2004).

Assay: Bulk density determination of granules / drug substance
Type: physicochemical
From the text: Generally, bulk density is the weight of a unit volume of material. Bulk density is also known as “apparent density.” Bulk density is typically expressed as a weight:volume ratio, for example, kilograms per liter (Kg/L) or grams per cubic centimeter (g/cm[…]). Bulk desntiy of a material can be measured by techniques that are well known in the art, by measuring the weight and volume of the material. See the Examples section of this application for exemplary techniques for measurement of bulk density.
The tap and bulk density determinations are performed as follows:
(a) A 250 mL glass cylinder is filled with formulation granules to the 100-200 mL volume mark.
(b) The mass of the cyclinder is recorded and the bulk density is determined by calculating the ratio of the mass of the formulation granules to the volume of the formulation granules.

bulk density (salt by itself)	bulk density (maleate salt by itself)	Compound
about 0.11±0.1		CCN(CC)CCNC(=O)c1c(C)[nH]c(/C=C2\C(=O)Nc3ccc(F)cc32)c1C [5-(5-fluoro-2-oxo-1,2-dihydro-indol-3-ylidenemethyl)-2,4-dimethyl-1H-pyrrole-3-carboxylic acid (2-diethylamino-ethyl)-amide]
	0.05 to 0.07 kg/L	Cc1[nH]c(/C=C2\C(=O)Nc3ccc(F)cc32)c(C)c1C(=O)NCC(O)CN1CCOCC1 (centres unmarked) [5-[(Z)-(5-fluoro-2-oxo-1,2-dihydro-3H-indol-3-ylidene)methyl]-N-[2-hydroxy-3-morpholin-4-ylpropyl]-2,4-dimethyl-1H-pyrrole-3-carboxamide]
